# Reference: US20100305157A1 (priority 2007, published 2010)
# Like-named read-outs stand apart in the source and are kept apart here.
# Columns and labels:
# [1] = test system: human neuroblastoma cell line SH-SYSY; assay: Neuroprotection against hydrogen peroxide-induced cell death (LDH release); type: cell-based; details: for inhibition at 1 µM: compound 1 micromolar (concentration of maximum protection); for inhibition at 3 µM: compound 3 micromolar (concentration of maximum protection); for inhibition at 10 µM: read-out: Protection (%); for inhibition at 30 µM: compound 30 micromolar (concentration of maximum protection)
# [2] = target: T1, purified AChE from Electrophorus electricus (Electrophorus electricus, UniProt O42275); assay: Inhibition of acetylcholinesterase (method of Rappaport); type: biochemical
# T1 construct: using purified AChE from Electrophorus electricus; from tissue
# Protocol: For this reason, it was considered interesting to evaluate the capacity to inhibit AChE of the compounds of the present invention. This evaluation was performed following the method of Rappaport (Clin. Chim. Acta 1959, 4, 227), using purified AChE from Electrophorus electricus and acetylcholine chloride (29.5 milimolar) as substrate. The reaction took place in a final volumen of 2.5 milliliters of an aqueous solution containing 0.78 units of AChE and m-nitrophenol at 1.9 milimolar to produce a yellow color, which is lost in function of the enzyme activity.
# Curves of inhibition were made incubating with the compounds of the present invention for 30 minutes and a sample without any compound was prepared to determine the 100% of the enzymatic activity. After 30 minutes of incubation, the loss of yellow color was evaluated by measuring absorbance at 405 nanometers in a spectrophotometric microplate reader (iEMS Reader MF, Labsystems). The concentration of compound producing 50% inhibition of AChE activity (IC50) was calculated transforming the values of absorbance to enzymatic activity Rappaport units extrapolating from a calibration curve previously obtained.
# The results of inhibition of AChE, expressed as the concentration which inhibits 50% of activity (IC50) for the compounds of the present invention, are the following: […]
# [3] = target: T2, peripheral site of AChE from bovine erythrocytes (Bos taurus, UniProt P23795); assay: biochemical; type: binding; details: for inhibition at 0.3 µM: compound 0.3 micromolar (concentration of maximum reduction)
# T2 construct: A solution of AChE from bovine erythrocytes; from tissue; host or cells: bovine erythrocytes
# T2 sequence (P23795 31-614 isoform P23795-2 limits assumed): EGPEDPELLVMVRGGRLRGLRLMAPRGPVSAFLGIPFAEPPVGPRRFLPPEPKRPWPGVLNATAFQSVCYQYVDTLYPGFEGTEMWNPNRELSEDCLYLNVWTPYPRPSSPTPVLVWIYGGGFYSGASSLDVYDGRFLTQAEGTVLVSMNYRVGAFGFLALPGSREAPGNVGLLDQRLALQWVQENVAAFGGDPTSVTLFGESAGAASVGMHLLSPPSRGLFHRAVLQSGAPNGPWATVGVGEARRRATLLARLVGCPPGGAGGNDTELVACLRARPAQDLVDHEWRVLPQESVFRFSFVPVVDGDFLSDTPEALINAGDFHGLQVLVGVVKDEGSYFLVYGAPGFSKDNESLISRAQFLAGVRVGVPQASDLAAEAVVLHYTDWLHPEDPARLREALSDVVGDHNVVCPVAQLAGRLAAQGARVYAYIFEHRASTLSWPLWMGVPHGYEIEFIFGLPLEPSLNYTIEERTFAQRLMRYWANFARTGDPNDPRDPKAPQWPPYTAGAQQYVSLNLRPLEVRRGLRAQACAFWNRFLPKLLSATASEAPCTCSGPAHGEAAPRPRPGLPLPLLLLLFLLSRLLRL
# Protocol: A competition test for the peripheral site of acetylcholinesterase was carried out with the compounds at concentrations of 0.3, 1 and 3 micromolar.
# A solution of AChE from bovine erythrocytes at the concentration of 5 micromolar in Tris buffer 0.1 milimolar and pH 8 was used.
# [4] = test system: human neuroblastoma cell line SH-SYSY; assay: Neuroprotection against rotenone plus oligomycin A-induced cell death (LDH release); details: rotenone (30 micromolar) plus oligomycin A (10 micromolar)
# Protocol: With this goal in mind, the cytoprotective effect of the compounds was evaluated in human neuroblastoma cells, specifically the neuroprotective potential of these compounds against oxidative stress produced in two different models: with hydrogen peroxide as exogenous generator of free radicals, and with rotenone and oligomycin A, blockers of the mitochondrial respiratory chain, as described in J. Neurochem.
# In the assays, SH-SYSY were sub-cultured in 48-well plates with a density of seed of 5×10^5 cells per well, or in 96-well plates with a density of 2×10^5 cells per well. In the cytotoxicity experiments, cells prepared in this way were treated with the compounds to test, in DMEM free of serum.
# To study the cytoprotective action of different compounds against cell death induced by hydrogen peroxide 30 micromolar or by a combination of rotenone 30 micromolar with oligomycin A 10 micromolar, compounds were added to the medium and maintained there for 24 hours. Then, media were replaced by fresh media still containing the compound plus the cytotoxic agent, and were maintained there for an additional period of 24 hours. Cell viability was checked by measuring the activity of the enzyme LDH, as it was explained before, using the kit “Cytotoxicity Cell Death” (Roche-Boehringer Mannheim) following the instructions of the manufacturer. Total LDH activity was defined as the sum of intra plus extra LDH activities. Released LDH was defined as the percentage of extracellular compared with total LDH activity.
# In all the pharmacological experiments a positive control was used as comparison and to evaluate the reliability of the method used.
# [5] = PAMPA
# Protocol: (§1) The experiments were performed using two 96-well microplate in a sandwich assembly. The top microplate (Millipore, Ref MAIPS4510) is provided with 96 hydrophobic PVDF filters, where a solution of a lipid extract of pig brain (Avanti Polar Lipids) in dodecane is put down.
# (§2) The bottom microplate has 96 tear-shaped wells (Millipore, Ref. MAMCS9610). The acceptor 96-well microplate was filled with 180 μL per well of a mixture of phosphate buffer saline pH 7.4 (PBS) and EtOH in proportion 90:10. The filter surface of the donor microplate was impregnated with 4 μL of a solution of lipid extract from pig brain in dodecane (20 mg mL^−1). Compounds were dissolved in PBS/EtOH (90:10) and then 180 μL were added to the donor microplate, which is carefully placed on the receiver plate. After 120 minutes of incubation at 25° C., plate donor is carefully separated and determined the concentration of the compounds in the acceptor plate by UV spectroscopy. This method measures the permeability, expressed as the rate of passage of a given barrier in 10^−6 centimeter per second (10^−6 cm s^−1). The results are expressed as the mean plus/minus the standard deviation of three independent assays, each containing four replicates of each tested compound.
# in vitro = details: pig, PAMPA, pH 7.4
# Protocol: as §1, §2
# [6] = oxygen peroxide (60 micromolar) stimulus, SH-SYSY, LDH
# [7] = compound 3 micromolar (concentration of maximum reduction), propidium 20 micromolar, AChE 5 micromolar, read-out: Protection (%) (percentage of the reduction in propidium fluorescence)
# [8] = 30 minutes incubation, acetylcholine chloride 29.5 milimolar as substrate, read-out: AChE-I, IC50
# [9] = compound 0.3 micromolar (concentration of maximum protection)
# [10] = read-out: Protection (%) (percentage of the reduction in propidium fluorescence)
# [11] = oxygen peroxide (60 micromolar) stimulus, compound 10 micromolar (concentration of maximum protection), SH-SYSY, LDH
# [12] = propidium 20 micromolar, AChE 5 micromolar, read-out: Protection (%) (percentage of the reduction in propidium fluorescence)
# [13] = compound 3 micromolar (concentration of maximum protection)
# T1 sequence (O42275 24-633): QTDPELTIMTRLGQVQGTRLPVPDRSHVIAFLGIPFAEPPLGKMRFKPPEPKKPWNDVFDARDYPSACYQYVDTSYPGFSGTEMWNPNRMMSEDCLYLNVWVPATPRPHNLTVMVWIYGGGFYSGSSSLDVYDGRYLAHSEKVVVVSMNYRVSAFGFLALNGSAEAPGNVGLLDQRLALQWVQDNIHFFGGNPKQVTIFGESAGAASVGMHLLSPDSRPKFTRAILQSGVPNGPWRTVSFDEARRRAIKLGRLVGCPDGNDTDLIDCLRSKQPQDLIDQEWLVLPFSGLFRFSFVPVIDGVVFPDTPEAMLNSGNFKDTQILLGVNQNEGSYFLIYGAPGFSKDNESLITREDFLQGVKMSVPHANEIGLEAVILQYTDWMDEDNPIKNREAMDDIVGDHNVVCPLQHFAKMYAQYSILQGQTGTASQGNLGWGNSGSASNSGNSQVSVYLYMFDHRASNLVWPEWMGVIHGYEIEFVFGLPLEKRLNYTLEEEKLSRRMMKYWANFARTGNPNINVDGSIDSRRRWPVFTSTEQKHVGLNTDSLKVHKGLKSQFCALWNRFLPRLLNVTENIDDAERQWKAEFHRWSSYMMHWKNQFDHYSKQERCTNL
smiles,measurement,setting,value
"CCCCCCOC(=O)C(CCC(=O)NCCC1CCN(Cc2ccccc2)CC1)NC(=O)c1cc2ccccc2s1 (stereo not shown) [Example 1.4, n-hexyl 2-[(benzo[b]tiofen-2-carbonyl)-amino]-4-[2-(1-benzyl-piperidin-4-yl)-ethylcarbamoyl]-butyrate]",inhibition at 1 µM,[1]; [6],28.7%
same,IC50,"[2]; read-out: AChE-I, IC50",2500 nM
same,inhibition at 3 µM,[3]; [7],39.7%
"CCCCCCOC(=O)C(CCC(=O)NCCC1CCN(Cc2ccccc2)CC1)NC(=O)c1ccccc1 (stereo not shown) [Example 1.3, n-hexyl 2-benzoylamino-4-[2-(1-benzylpiperidin-4-yl)-ethylcarbamoyl]-butyrate]",inhibition at 3 µM,[1]; [6],68.1%
same,IC50,[2]; [8],1900 nM
same,inhibition at 3 µM,[3]; [7],37.3%
same,Protection (%),[4]; [9],47.9%
"CCCCCCOC(=O)C(CCC(=O)NCCC1CCN(Cc2ccccc2)CC1)NC(=O)OCc1ccccc1 (stereo not shown) [Example 1.1, n-hexyl 2-benzyloxycarbonylamino-4-[2-(1-benzylpiperidin-4-yl)-ethylcarbamoyl]-butyrate]",inhibition at 10 µM,[1],39.1%
same,IC50,[2],1400 nM
same,inhibition at 3 µM,[3]; [10],29.3%
"CCCCCCOC(=O)C(CCC(=O)NCCC1CCN(Cc2ccccc2)CC1)NC(=O)c1cc2ccsc2s1 (stereo not shown) [Example 1.7, n-hexyl 4-[2-(1-benzyl-piperidin-4-yl)-ethylcarbamoyl]-2-[(thieno[2,3-b]thiophen-2-carbonyl)-amino]-butyrate]",inhibition at 10 µM,[1]; [11],46.4%
same,IC50,[2]; [8],3500 nM
same,inhibition at 0.3 µM,[3]; [12],42.2%
same,Protection (%),[4]; [9],46.1%
"CCCCCCOC(=O)C(CCC(=O)NCCC1CCN(Cc2ccccc2)CC1)NC(=O)Cc1cc2ccc(Cl)cc2s1 (stereo not shown) [Example 1.5, n-hexyl 4-[2-(1-benzyl-piperidin-4-yl)-ethylcarbamoyl]-2-[2-(6-chloro-benzo[b]thiophen-2-yl)-acetylamino]-butyrate]",inhibition at 3 µM,[1]; [6],32.5%
same,IC50,[2]; [8],2300 nM
same,inhibition at 3 µM,[3]; [7],23.4%
"CCCCCCOC(=O)C(CCC(=O)NCCC1CCN(Cc2ccccc2)CC1)NC(=O)OC(C)(C)C (stereo not shown) [Example 1.2, n-hexyl 4-[2-(1-benzylpiperidin-4-yl)-ethylcarbamoyl]-2-tert-butoxycarbonylamino-butyrate]",inhibition at 1 µM,[1]; [6],24.9%
same,IC50,[2],5000 nM
same,inhibition at 1 µM,[3]; [10],43.6%
same,Classification (CNS penetration),[5],CNS+
same,Papp at 120 min,in vitro,4.4 ± 0.1 ×10⁻⁶ cm/s
"C=CC[N+](C)(C)c1ccc(CCC(=O)CCc2ccc([N+](C)(C)CC=C)cc2)cc1.[Br-].[Br-] [BW284c51, reference compound]",Protection (%) (percentage of the reduction in propidium fluorescence),"[3]; positive control at 1000 micromolar (1 milimolar), propidium 20 micromolar, AChE 5 micromolar",24.5%
"Cc1c(C)c2c(c(C)c1O)CCC(C)(C(=O)O)O2 (stereo not shown) [Trolox, trolox, reference compound]",inhibition at 30 µM,[1]; [6],57.7%
same,Protection (%),[4]; [13],52.9%
"CCCCCCOC(=O)C(CCC(=O)NCCC1CCN(Cc2ccccc2)CC1)NC(=O)c1cccs1 (stereo not shown) [Example 1.8, n-hexyl 4-[2-(1-benzyl-piperidin-4-yl)-ethylcarbamoyl]-2-[(thiophen-2-carbonyl)-amino]-butyrate]",inhibition at 10 µM,[1]; [11],73%
same,IC50,[2]; [8],3500 nM
same,inhibition at 3 µM,[3]; [7],15%
same,Classification (CNS penetration),[5],CNS+
same,Papp at 120 min,in vitro,5.3 ± 0.01 ×10⁻⁶ cm/s
same,Protection (%),[4]; compound 0.1 micromolar (concentration of maximum protection),48.9%
"CCCCCCOC(=O)C(CCC(=O)NCCC1CCN(Cc2ccccc2)CC1)NC(=O)c1cc(Br)cs1 (stereo not shown) [Example 1.9, n-hexyl 4-[2-(1-benzyl-piperidin-4-yl)-ethylcarbamoyl]-2-[(4-bromo-thiophen-2-carbonyl)-amino]-butyrate]",inhibition at 3 µM,[1]; [6],84.3%
same,IC50,[2]; [8],1200 nM
same,inhibition at 0.3 µM,[3]; [12],11.3%
same,Protection (%),[4]; [13],35.9%
"CCCCCCOC(=O)C(CCC(=O)NCCC1CCN(Cc2ccccc2)CC1)NC(=O)c1cc2cccnc2s1 (stereo not shown) [Example 1.6, n-hexyl 4-[2-(1-benzyl-piperidin-4-yl)-ethylcarbamoyl]-2-[(thieno[2,3-b]piridin-2-carbonyl)-amino]-butyrate]",inhibition at 30 µM,[1]; [6],48.8%
same,IC50,[2]; [8],3250 nM
same,inhibition at 0.3 µM,[3]; [12],37.4%
same,Classification (CNS penetration),[5],CNS+
same,Papp at 120 min,in vitro,3.2 ± 0.01 ×10⁻⁶ cm/s
